Source: patent publication US6921530B1, “Low dose IL-2 for potentiation of immunity” (Cornell Research Foundation, Inc., priority 1999, dated 2005)
Values joined by “and” are separate entries in the source; they are usually repeats but may differ in a detail not shown here. Identical values can stand only once.

How the values were obtained:
HCV [1] = conditions: 1-2 MIU s.c. daily; cited from earlier work
HCV [2] = conditions: cited from earlier work
HIV infection = experiment: Daily IL-2 in conjunction with HAART in HIV infection (earlier experience); type: in vivo, human; conditions: after 6 months of IL-2 therapy
Excerpt: Daily low-dose IL-2 therapy served to correct the deficiency in CD4+ T cells, while maintaining the high frequency of CD8+ HIV-specific CTL, and increasing the circulating NK cells.

plasma HIV RNA = experiment: Plasma HIV RNA (branched chain DNA assay) after cessation of PART with continued low-dose IL-2; type: in vivo; conditions: for Increasing HIV Dbl time: IL-2 250,000 U/m^2 daily continued; for Max. Decrease (log): peak to trough
Procedure: The parameters monitored throughout the study included the time to the onset of viremia, the rate of viremic increase, the peak plasma virus concentration and the rapidity and completeness of the disappearance of viremia.
Prior to the discontinuation of PART, at least 3 months of daily, low-dose (250,000 U/m^2) subcutaneous IL-2 (R-Met-HU IL2-Ala-125, Amgen, Thousand Oaks, Calif.) immuno-stimulatory therapy were administered as described in Jacobsen, E L et al., Proc Natl Acad Sci USA 93:10405-10 (1996). In addition, to ensure the safest possible immune parameters for the discontinuation of PART, IL-2 immuno-stimulation was continued after the anti-viral drugs were withdrawn. […] All subjects had undetectable plasma virus during this interval.
Subsequent to the discontinuation of PART, plasma HIV was monitored twice weekly. Plasma HIV RNA concentrations were determined on EDTA anti-coagulated plasma samples, which were frozen (−70° C.) within 3 hours of phlebotomy. Samples were assayed by Bayer Diagnostics, Emeryville, Calif. Lymphocyte subsets were determined on fresh blood samples by flow cytometry using subset-specific monoclonal antibodies and a FACSCaliber from Becton-Dickinson, San, Jose, Calif. by standard procedures according to the manufacturer. All subjects eventually experienced a relapse of viremia The onset of viremia in each subject was taken as t=day 1. The mean time interval until plasma virus once again became detectable was 19±3 (SEM) days (range 14-39 days). Once detectable, the plasma virus concentration increased progressively over 2.5 weeks, reaching a mean peak of 375,101±229,139 (SEM) (log10=5.15±0.21) HIV RNA molecules/ml. Thereafter, the virus concentration decreased progressively over the next 4-6 weeks, reaching an apparent trough defined as at least 4 successive measures of HIV RNA that varied less than 3-fold. By 6 weeks from the onset of the viremia, the mean virus concentration had decreased to 31,707±11,851 (SEM) (log10=4.21±0.19) HIV RNA molecules/ml, a drop from the peak viral concentration by an order of magnitude.

[3] = system: circulating lymphocyte subsets (CD4+ T cells, CD8+ T cells, NK cells); experiment: Circulating lymphocyte subsets by flow cytometry in HIV-positive subjects on PART + IL-2 and after cessation of PART; type: in vivo, human
Excerpt: Conditions for patient exclusion included a) uncontrolled infection; b) concurrent therapy with glucocorticoids or other immunosuppressive agents; or c) concurrent immunomodulating agents, eg. IFN-a, granulocyte colony stimulating factor (G-CSF), granulocyte-monocyte colony stimulating factor (GM-CSF).
Prior to the discontinuation of PART, at least 3 months of daily, low-dose (250,000 U/m^2) subcutaneous IL-2 (R-Met-HU IL2-Ala-125, Amgen, Thousand Oaks, Calif.) immuno-stimulatory therapy were administered as described in Jacobsen, E L et al., Proc Natl Acad Sci USA 93:10405-10 (1996). In addition, to ensure the safest possible immune parameters for the discontinuation of PART, IL-2 immuno-stimulation was continued after the anti-viral drugs were withdrawn.
Subsequent to the discontinuation of PART, plasma HIV was monitored twice weekly. Plasma HIV RNA concentrations were determined on EDTA anti-coagulated plasma samples, which were frozen (−70° C.) within 3 hours of phlebotomy. Samples were assayed by Bayer Diagnostics, Emeryville, Calif. Lymphocyte subsets were determined on fresh blood samples by flow cytometry using subset-specific monoclonal antibodies and a FACSCaliber from Becton-Dickinson, San, Jose, Calif. by standard procedures according to the manufacturer.
For 3 months prior to the discontinuation of PART, the concentration of circulating lymphocyte subsets were monitored monthly (see Table 1). Subsequent to the discontinuation of PART, the lymphocytes were monitored weekly. Whole blood (1 ml) was activated in vitro with HIV recombinant p55 antigen (Chiron Corp., Emeryville, Calif., 1 μg/ml) for 6 hours at 37 C. During the last 4 hours, Brefeldin A (Sigma, Inc., St. Louis, Mo., […]) was added to retard cytokine secretion. At the end of the incubation, EDTA (Sigma, 100 mM) was added, the blood was vortexed vigorously for 10 seconds, and the erythrocytes were lysed using 10 ml FACSLysing Reagent. After a 10 minute incubation the leukocytes were separated by centrifugation (500×g, 10 min), then resuspended and frozen (−70 C) in 2 ml R.P.M.I. 1640 tissue cuture medium containing 10% fetal calf serum and 10% dimethyl sulfoxide. Prior to labeling with monoclonal antibodies, the cells were thawed, centrifuged (500×g, 10 min) and permeabilized using FACSPerm. After washing with 3 ml phosphate buffered saline (PBS), the cells were incubated with fluorochrome-conjugated monoclonal antibodies for 30 minutes at room temperature in the dark. The cells were then washed 1× with PBS, and then fixed with 0.5% paraformaldehyde and analyzed by flow cytometry.

[4] = after cessation of PART, IL-2 continued, subject #1-9, mean
[5] = after cessation of PART, IL-2 continued, subject #1-9, mean, mean
[6] = second treatment interruption, 4 subjects

In the case of Interleukin-2 [IL-2], the “subjects showing a decrease in ALT” value (HCV [1]) is listed as 70%, the “dose best tolerated and most effective” value (HCV [2]; 33 subjects, s.c., 12 weeks, no IFN) is listed as 2×10^6 CT/day and the sustained virologic response (HCV [2]; in vivo) is listed as “No sustained virologic response was found”. For the same substance, the “biochemical response rate (normalization of ALT) at the end of treatment” value (HCV [2]; preferred dose, 12 weeks) was 24%, the “biochemical response rate 6 months following a 12 week course” value (HCV [2]; preferred dose) was 12% and the “Delayed Type Hypersensitivity (DTH) to common environmental antigens” value (HIV infection) was “more than doubled”. The “peak plasma HIV RNA after the first interruption” value (plasma HIV RNA; 3 of 4 individuals) was 5.53±0.54 log10 HIV RNA molecules/ml, the “peak plasma HIV RNA after the second interruption” value (plasma HIV RNA; 3 of 4 individuals) was 4.27±0.27 log10 HIV RNA molecules/ml and the “peak plasma HIV RNA lower after second than first interruption” value (plasma HIV RNA; 3 of 4 individuals) was 1.26±0.14 log10 HIV RNA molecules/ml. For the same substance, the “Increasing HIV Dbl time” value (plasma HIV RNA; after cessation of PART, subject #1-9, mean) was 2.7 days and 1.3 days and 1.0 days and 2.0 days (2×) and 1.6 days (3×) and 1.2 days, the “Increasing HIV Dbl time” value (plasma HIV RNA; after cessation of PART, subject #1-9, mean, mean) was 1.6 days and the “Decreasing HIV Time to Min.” value (plasma HIV RNA; [4]) was 9 days and 28 days and 24 days and 7 days and 26 days (2×) and 10 days and 17 days and 18 days. The “Increasing HIV Days to Peak” value (plasma HIV RNA; [4]) was 28 days and 14 days (3×) and 21 days and 16 days (2×) and 18 days and 10 days, the “Peak HIV #” value (plasma HIV RNA; [4]) was 375,101±229,139 HIV RNA molecules/ml and 230,074 HIV RNA molecules/ml and 14059 HIV RNA molecules/ml and 40662 HIV RNA molecules/ml and 295942 HIV RNA molecules/ml and 160949 HIV RNA molecules/ml and 2185670 HIV RNA molecules/ml and 300203 HIV RNA molecules/ml and 375101 HIV RNA molecules/ml and 80910 HIV RNA molecules/ml and 230074 HIV RNA molecules/ml and 67442 HIV RNA molecules/ml and the “Peak HIV (log)” value (plasma HIV RNA; [4]) was 5.15±0.21 log and (4.15) log and (4.61) log and (5.47) log and (5.21) log and (6.34) log and (5.48) log and (5.15) log and (4.91) log and (5.36) log and (4.83) log. For the same substance, the “Trough HIV (log)” value (plasma HIV RNA; [4]) was 4.21±0.19 log and (3.96) log and (4.36) log and (4.69) log and (4.93) log and (4.97) log and (4.21) log and (3.68) log and (4.00) log and (3.36) log, the “Trough HIV #” value (plasma HIV RNA; after cessation of PART, IL-2 continued, subject #1-9, mean (by 6 weeks from onset of viremia)) was 31,707±11,851 HIV RNA molecules/ml and 9215 HIV RNA molecules/ml and 9180 HIV RNA molecules/ml and 22695 HIV RNA molecules/ml and 48562 HIV RNA molecules/ml and 85782 HIV RNA molecules/ml and 92901 HIV RNA molecules/ml and 31707 HIV RNA molecules/ml and 4741 HIV RNA molecules/ml and 10024 HIV RNA molecules/ml and 2266 HIV RNA molecules/ml and the “Decreasing HIV Time to Min.” value (plasma HIV RNA; [5]) was 18 days. For the same substance, the “Increasing HIV Days to Peak” value (plasma HIV RNA; [5]) was 17 days, the “time interval until plasma virus once again became detectable” value (plasma HIV RNA; after discontinuation of PART, 9 subjects, mean ± SEM and range) was 19 ± 3 days and 14 to 39 days and the “Decreasing HIV T ½” value (plasma HIV RNA; first 10 days after peak, IL-2 continued, subject #1-9, mean) was 84 ± 17 h and 182 h and 125 h and 132 h and 81.6 h and 38.4 h and 93.6 h and 84 h and 36 h and 43.2 h. The “Max. Decrease (log)” value (plasma HIV RNA; subject #1-9, mean) was 0.19 log and 0.65 log and 1.11 log and 0.52 log and 1.41 log and 0.51 log and 1.23 log and 1.36 log and 1.47 log, the “Max. Decrease (log)” value (plasma HIV RNA; subject #1-9, mean, mean) was 0.94 log and the “latent period to detectable viremia” value (plasma HIV RNA; [6]) was 14.5 ± 4.1 days. The “rate of doubling (t½)” value (plasma HIV RNA; [6]) was 36 ± 7.2 h, the “days plasma HIV RNA undetectable after discontinuation of PART” value (plasma HIV RNA; subject D3) was 39 days and the “plasma HIV RNA after 98 days as % of the peak viral concentration” value (plasma HIV RNA; subject D3) was less than 1%. The “plasma HIV RNA after 98 days without PART” value (plasma HIV RNA; subject D3) was 1,686 HIV RNA molecules/ml, the “mean magnitude of decline of plasma HIV, rapid rate subjects” value (plasma HIV RNA; subjects #1, 2, 3, 8) was 1.37±0.05 log10 HIV RNA molecules/ml and the “t ½ of viral decline, subjects with rapid rate” value (plasma HIV RNA; subjects #1, 2, 3, 8) was 38.4 ± 2.4 h. For the same substance, the “magnitude of decline of plasma HIV, slower rate subjects” value (plasma HIV RNA; subjects #4, 5, 6, 7, 9) was 0.59±0.15 log10 HIV RNA molecules/ml, the “mean t ½ of viral decline, subjects with slow rate” value (plasma HIV RNA; subjects #4, 5, 6, 7, 9) was 122 ± 17 h and the “CD8+ T cell concentration as % of baseline levels” value ([3]; after 2 weeks of viremia) was > 200 % of baseline. For the same substance, the “mean peak increase of CD8+ T cells, group with more rapid viral decline” value ([3]; after cessation of PART) was 350 % of baseline, the “mean peak increase of CD8+ T cells, group with slower viral decline” value ([3]; after cessation of PART) was 150 % of baseline and the “change of circulating NK cells” value ([3]; entire interval after discontinuation of PART) was “did not change significantly”. The “decrease of circulating CD4+ T cells compared with baseline” value ([3]; just after the peak of viremia, after discontinuation of PART) was 24%, the “fold increase of CD8+ T cells from baseline” value ([3]; subject D3) was 8 fold and the “CD8+ T cells at peak” value ([3]; subject D3, coincident with drop in plasma HIV RNA) was 4,669 cells/mm3.
